Publication PMC6533066 (Biomedical microdevices, 2019)
Where a name gives a salt, the structure may show the parent alone.

How the values were obtained:
[1] = in vivo; cited from earlier work
[2] = Wistar rats
[3] = 1 mg/kg bolus iv (jugular vein), serum, HPLC-MS/MS, mean ± SD, n = 6 rats, SD
[4] = 1 mg/kg bolus iv, mean ± SD, n = 6 rats, SD

Compound	detection in ISF [1]	Cmax, Serum [2, 3] [ng/mL]	Tmax, Serum [2, 3] [min]	delay in time to peak vancomycin concentration (Tmax) in ISF compared to serum ([2]; 1 mg/kg bolus iv, Student's t-test p < 0.05)	AUC Ratio (ISF:serum) [2, 4]	Cmax Ratio (ISF:serum) [2, 4]	Tmax Ratio (ISF:serum) [2, 4]
O=C1NC(=O)C(c2ccccc2)(c2ccccc2)N1 [phenytoin]	not detectable						
CN[C@H](CC(C)C)C(=O)N[C@H]1C(=O)N[C@@H](CC(N)=O)C(=O)N[C@H]2C(=O)N[C@H]3C(=O)N[C@H](C(=O)N[C@H](C(=O)O)c4cc(O)cc(O)c4-c4cc3ccc4O)[C@H](O)c3ccc(c(Cl)c3)Oc3cc2cc(c3O[C@@H]2O[C@H](CO)[C@@H](O)[C@H](O)[C@H]2O[C@H]2C[C@](C)(N)[C@H](O)[C@H](C)O2)Oc2ccc(cc2Cl)[C@H]1O [vancomycin, Vancomycin hydrochloride]		2600 ± 600	10 ± 0	~ 17 min	1.3 ± 0.2	0.9 ± 0.2	2.7 ± 1.6
